Where two headings read alike, the source gives them in different places.
Assays:
[1] = Brain and plasma drug levels 1 h after i.p. administration (LC-MS/MS); assay type: in vivo; conditions: mice; for B/P, ratio between brain/plasma drug level: 1 h after i.p. 5 mg/Kg
Protocol: (§1) Test compounds underwent preliminary evaluations of brain penetration, in which 5 mg/Kg of each compound was administered intraperitoneally (i.p.) to a group of three normal mice; drug levels in brain and plasma were determined at a single time-point (1 h) by LC-MS/MS using pre-validated calibration curves. […] However, both esters appeared to have relatively short half-lives in plasma, as indicated by the limited amount of parent drug detected after 1 h from administration of the compounds. […] CNDR-51362 was selected for full PK analysis in which brain and plasma drug levels were determined at six time points (i.e., 30 min, 1 h, 2 h, 4 h, 8 h, and 16 h). The results from this experiment, illustrated in FIG. 6A, confirmed that the total B/P exposure ratio over 16 h is 1.6. […] Finally, in order to investigate the potential for ATPZ congeners to be orally administered, we evaluated brain and plasma level of CNDR-51362 and CNDR-51349 after oral administration of 5 mg/Kg.
(§2) Brain tissue was homogenized in 10 mM ammonium acetate, pH 5.7 (1:2; w/v) using a handheld sonic homogenizer. Plasma was obtained from blood that was collected into a 1.5 mL tube containing 0.5M EDTA solution and subjected to centrifugation for 10 min. at 4500 g at 4° C. Aliquots (50 μL) of brain homogenate or plasma were mixed with 0.2 mL of acetonitrile, centrifuged at 15,000 g, and the resulting supernatants were used for subsequent LC-MS/MS analysis. The LC-MS/MS system was comprised of an Aquity HPLC and a TQ MS that was controlled using MassLynx software (Waters Corporation, Milford, Mass., USA). Compounds were detected using multiple reaction monitoring (MRM) of their specific collision-induced ion transitions. Samples (5 μL) were separated on an Aquity BEH C18 column (1.7 μm, 2.1×50 mm) at 35° C. Operation was in positive electrospray ionization mode, with mobile phase A of 0.1% (v/v) formic acid, and B of either acetonitrile or methanol with 0.1% (v/v) formic acid at a flow rate of 0.6 mL/min using a gradient from 5% to 95% B over two min., followed by wash and re-equilibration steps. The MS was operated with a desolvation temperature of 450° C. and a source temperature of 150° C. Desolvation and source nitrogen gas flows were 900 L/hr and 50 L/hr, respectively. Source and MS/MS voltages were optimized for each compound using the MassLynx auto tune utility. Standard curves were generated for each compound from brain homogenate and plasma samples that had compound added at 4, 40, 400 and 4000 ng/mL and extracted as above. Peak areas were plotted against concentration and a 1/x weighted linear regression curve was used to quantify the tissue-derived samples using the average peak area from triplicate injections.

[2] = biological target: T1, full-length tau (tau40) (Homo sapiens, UniProt P10636); assay: Tau40 fibrillization sedimentation assay; assay type: biochemical; conditions: SDS-PAGE of soluble and insoluble fractions after centrifugation; for Emax: read-out: Tau40 Sed. Assay, maximal percent inhibition of tau40 fibrillization
T1 construct: Full length tau (Tau40; amino acids 1-441); made in house
Protocol: The determination of compound-induced effects on the amount of tau that remains soluble upon centrifugation, and EM visualization of tau species following incubation with test compounds, were as previously described (Crowe, A., Ballatore, C., Hyde, E., Trojanowski, J. Q., and Lee, V. M. Y. (2007) Biochemical and Biophysical Research Communications 358, 1-6). […]

[3] = Full PK analysis and oral administration, brain and plasma levels; assay type: in vivo, mice; conditions: oral 5 mg/Kg, FIGS. 6B and 6C; 5 mg/kg
Protocol: FIG. 6. (A) Brain and plasma level of F4 (CNDR-51362) after i.v. administration at 2 mg/Kg; (B) Brain and plasma level of F4 (CNDR-51362) after oral administration at 5 mg/Kg; (C) Brain and plasma level of F3 (CNDR-51349) after oral administration at 5 mg/Kg
as §1, §2

[4] = biological target: T2, K18PL tau (Homo sapiens, UniProt P10636, P618L); assay: K18PL tau centrifugation (sedimentation) assay, SDS-PAGE densitometry; assay type: biochemical; conditions: for Emax: SDS-PAGE of soluble and insoluble fractions after centrifugation, read-out: K18PL Sed. Assay, maximal percent inhibition of K18PL fibrillization
T2 construct: (K18PL; amino acids 244-369); made in house
Procedure, shortened: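 Heparin-induced fibrillization of K18PL tau in sodium acetate buffer with test compound; mixtures were centrifuged and soluble versus insoluble K18PL quantified by SDS-PAGE densitometry. A repeat run centrifuged DMSO- and compound-treated mixtures for 30 min at time zero to remove pelletable material before incubation.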

[5] = biological target: T2, K18PL tau; assay: Heparin-induced K18PL tau fibrillization assay monitored by ThT fluorescence; assay type: biochemical; conditions: for Emax: read-out: K18PL (ThT) maximal percent inhibition achieved in the assay
Procedure, shortened: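 K18PL (30 μM stock, with 0.24 μM Alexa Red-labeled K18PL) plus 40 μM heparin and compound, fibrillized 6 h at 37 °C. Fibrils read by ThT (12.5 μM final, in 100 mM glycine pH 8.5, 1 h RT), ex 450/em 510 nm. Percent inhibition scaled between DMSO wells and non-fibrillizing K18 KD control wells.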

[6] = Turbidimetric solubility in fibrillization buffer; assay type: physicochemical; conditions: 100 mM NaOAc pH 7.0 fibrillization buffer, 1% DMSO
Protocol: Compounds were serially diluted in DMSO to achieve a 2.5 fold dilution series from 20 mM down 8 points to […] on a 384-well master plate (Costar 3672). Aliquots (2 μL) were transferred to a clear 96-well assay plate (Fisher 12-565-501) containing 198 μL fibrillization buffer (100 mM NaOAc pH 7.0) for a 100-fold dilution (200 μM down to 0.3 μM). The plate was incubated with agitation for 2.5 h, and the absorbance at 550, 600, 650 and 700 nm was measured on a Spectramax M5 spectrophotometer. DMSO (1%) in fibrillization buffer served as a control that was subtracted from each data point. The absorbances were averaged and the concentration at which the average absorbance rose above 0.03 AU was an indication of insoluble compound, with solubility limits reported as the previous concentration in the dilution series.

[7] = biological target: T3, Tau40 (Homo sapiens, UniProt P10636); assay: SEC of Tau40 fibrillization post-centrifugation supernatants; assay type: biochemical; conditions: tau40 fibril assembly with 5b relative to untreated fibrillization reaction, FIG. 2
T3 construct: Full length tau (Tau40; amino acids 1-441); made in house
Protocol: Tau40 (50 μM) and heparin (20 μM) were incubated in a PCR tube with or without the compound 5b (100 μM) at 37° C. for 5 days in a final volume of 100 μl of […] sodium acetate buffer, pH 7.0. In the absence of compound, tau40 fibrillization is complete under these conditions, as determined by ThT fluorescence and centrifugation assays. A non-assembly control reaction was also prepared as above with Tau40 and 5b in the absence of heparin. The completed reactions were centrifuged at 40,000 g for 30 minutes to sediment fibrils and the supernatants were applied to a Superdex 200 10/300 column (GE Healthcare) employing an Äkta Basic FPLC unit (GE Healthcare) with a flow rate of 0.4 ml/minute. Tau elution was monitored by absorbance at 280 nm. Under these chromatography conditions, monomeric tau can be separated from oligomeric species (Li, W. K. and Lee, V. M. Y. (2006) Biochemistry 45, 15692-15701).

[8] = biological target: T4, Aβ(1-42) (Homo sapiens, UniProt P05067); assay: Aβ(1-42) fibrillization assay (ThT); assay type: biochemical; conditions: Table 3; highest tested concentration (80 μM); read-out: Aβ42 ThT Assay % Inhib.
T4 construct: Synthetic Aβ(1-42) peptide (rPeptide); purchased rPeptide

[9] = biological target: T5, K18 tau-mediated tubulin polymerization (Homo sapiens, UniProt P10636); assay: Tau-mediated MT assembly assay (K18 tau, tubulin); assay type: biochemical, bovine (tubulin); conditions: 50 μM compound, FIG. 1A
T5 construct: (K18PL; amino acids 244-369)
Protocol: The effect of compounds on tau-mediated MT assembly was essentially as described (Hong, M., Zhukareva, V., Vogelsberg-Ragaglia, V., Wszolek, Z., Reed, L., Miller, B. I., Geschwind, D. H., Bird, T. D., McKeel, D., Goate, A., Morris, J. C., Wilhelmsen, K. C., Schellenberg, G. D., Trojanowski, J. Q., and Lee, V. M. Y. (1998) Science 282, 1914-1917), adapted to a 384-well plate. […] Lyophilized bovine brain tubulin (Cytoskeleton Inc.) was reconstituted in RAB (100 mM MES, pH 6.9; 1 mM EDTA; 0.5 mM MgSO4) at a concentration of 10 mg/ml. Compounds (50 μM) were added to K18 tau (40 μM) in RAB and pre-incubated at room temperature for 60 minutes. To initiate the MT assembly reaction, 8.25 μl per well of 10 mg/ml tubulin was dispensed on a UV-clear 384-well plate (Corning #3675), followed by 1.0 μl of 100 mM GTP in RAB and 41.25 μl of the compound:tau mixture. […] The plate was incubated in a Spectramax M5 plate reader at 37° C. and the absorbance at 340 nm was read every minute for 45 minutes.

[10] = Table 5, read-out: K18PL (ThT) IC50 value

T1 sequence (P10636 1-441 isoform P10636-8): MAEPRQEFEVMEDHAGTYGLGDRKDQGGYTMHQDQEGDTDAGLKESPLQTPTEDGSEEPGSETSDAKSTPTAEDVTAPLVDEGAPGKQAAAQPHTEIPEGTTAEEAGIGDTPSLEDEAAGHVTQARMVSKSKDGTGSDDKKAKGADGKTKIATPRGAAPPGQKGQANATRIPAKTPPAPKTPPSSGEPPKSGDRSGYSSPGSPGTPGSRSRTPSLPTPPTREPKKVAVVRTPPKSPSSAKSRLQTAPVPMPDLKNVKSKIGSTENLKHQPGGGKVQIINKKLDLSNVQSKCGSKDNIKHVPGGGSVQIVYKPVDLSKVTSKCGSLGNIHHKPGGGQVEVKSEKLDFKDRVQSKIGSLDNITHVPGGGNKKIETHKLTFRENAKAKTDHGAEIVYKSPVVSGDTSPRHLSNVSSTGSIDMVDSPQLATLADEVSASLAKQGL
T2 sequence (P10636 561-686 P618L): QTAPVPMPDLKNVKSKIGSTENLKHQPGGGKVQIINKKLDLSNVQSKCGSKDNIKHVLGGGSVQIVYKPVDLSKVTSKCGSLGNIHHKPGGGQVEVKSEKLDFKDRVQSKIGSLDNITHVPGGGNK
T5 sequence (P10636 561-686): as the sequence (P10636 561-686 P618L) above, with L58P counted along it
T4 sequence (P05067 672-713 limits assumed): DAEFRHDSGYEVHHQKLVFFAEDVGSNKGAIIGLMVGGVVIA
T3 sequence (P10636 1-441 isoform P10636-8): as the sequence (P10636 1-441 isoform P10636-8) above

| Structure (SMILES) | B/P, ratio between brain/plasma drug level [1] | Brain level ([1]; 1 h after i.p. 5 mg/kg, listed as CNDK-51349, 5 mg/kg) | Tau40 Sed. Assay, maximal percent inhibition of tau40 fibrillization [2] | Emax [2] | Brain concentration after oral administration [3] | Emax [4] | IC50 [5, 10] | Emax ([5]; Table 5) | Water Solubility [6] | inhibition at 80 µM [8] | Tau Cent. Assay % Soluble ([4]; Table 3, K18PL tau centrifugation assay) | inhibition at 80 µM ([5]; Table 3, highest tested concentration (80 μM), read-out: Tau ThT Assay % Inhib.) | IC50 ([5]; Table 3, logarithm of IC50, K18PL tau ThT fluorescence inhibition, NC = not calculated due to insufficient activity, read-out: Tau ThT Assay Log IC50 (converted)) | Effect on tau-mediated tubulin polymerization (MT formation) [9] | Monomeric tau in post-centrifugation supernatant (SEC) [7] |
| --- | --- | --- | --- | --- | --- | --- | --- | --- | --- | --- | --- | --- | --- | --- | --- |
| CC(C)NC(=O)c1nn(-c2ccc(Cl)cc2)c(=O)c2c(N)scc12 [CNDR-51349, 5-Amino-3-(4-chlorophenyl)-N-isopropyl-4-oxo-3,4-dihydrothieno[3,4-d]pyridazine-1-carboxamide] | 2.2 | 1100 ng/g | 45% | 50 to 60% | significant brain concentrations | 65% | 0.7 µM | 88% | 32 µM |  |  |  |  |  |  |
| CCN(C)C(=O)c1nn(-c2ccc(Cl)cc2)c(=O)c2c(N)scc12 [CNDR-51366, 5-Amino-3-(4-chlorophenyl)-N-ethyl-N-methyl-4-oxo-3,4-dihydrothieno[3,4-d]pyridazine-1-carboxamide] | 0.89 |  | 58% | 50 to 60% |  | 62% | 6.8 µM | 91% | 80 µM |  |  |  |  |  |  |
| CC(C)NC(=O)c1nn(-c2ccc(Br)cc2)c(=O)c2c(N)scc12 [CNDR-51390, 5-Amino-3-(4-bromophenyl)-N-isopropyl-4-oxo-3,4-dihydrothieno[3,4-d]pyridazine-1-carboxamide] | 2.0 |  | 55% | 50 to 60% |  | 58% | 2.2 µM | 89% | 13 µM |  |  |  |  |  |  |

More lines, main results first:

| B/P, ratio between brain/plasma drug level [1] | Brain level ([1]; 1 h after i.p. 5 mg/kg, listed as CNDK-51349, 5 mg/kg) | Tau40 Sed. Assay, maximal percent inhibition of tau40 fibrillization [2] | Emax [2] | Brain concentration after oral administration [3] | Emax [4] | IC50 [5, 10] | Emax ([5]; Table 5) | Water Solubility [6] | inhibition at 80 µM [8] | Tau Cent. Assay % Soluble ([4]; Table 3, K18PL tau centrifugation assay) | inhibition at 80 µM ([5]; Table 3, highest tested concentration (80 μM), read-out: Tau ThT Assay % Inhib.) | IC50 ([5]; Table 3, logarithm of IC50, K18PL tau ThT fluorescence inhibition, NC = not calculated due to insufficient activity, read-out: Tau ThT Assay Log IC50 (converted)) | Effect on tau-mediated tubulin polymerization (MT formation) [9] | Structure (SMILES) | Monomeric tau in post-centrifugation supernatant (SEC) [7] |
| --- | --- | --- | --- | --- | --- | --- | --- | --- | --- | --- | --- | --- | --- | --- | --- |
| 0.49 |  | 51% | 50 to 60% |  | 68% | 4.3 µM | 91% | 13 µM |  |  |  |  |  | CNC(=O)c1nn(-c2ccc(Cl)cc2)c(=O)c2c(N)scc12 [CNDR-51367, 5-Amino-3-(4-chlorophenyl)-N-methyl-4-oxo-3,4-dihydrothieno[3,4-d]pyridazine-1-carboxamide] |  |
|  |  |  |  |  |  |  |  |  | 28% | 64% | 86% | 5.01 µM |  | CCOC(=O)c1nn(-c2ccc(OC)cc2)c(=O)c2c(N)scc12 [Compound 5b] | appreciable increase in the amount of monomeric tau |
|  |  |  |  |  |  |  |  |  |  |  |  |  | significant diminution | CN(C)c1ccc2nc3ccc(=[N+](C)C)cc-3sc2c1 [methylene blue] |  |

Reference: patent publication US20130029983A1, “AMINOTHIENOPYRIDAZINE INHIBITORS OF TAU ASSEMBLY” (priority 2009, published 2013)
